The values that follow come from ChEMBL document CHEMBL3991601, “The target landscape of clinical kinase drugs” (Science, 2017).

Calls of active or inactive are those of the source.

Assay [1] deals with T1, Mitogen-activated protein kinase kinase kinase 2 (Homo sapiens, UniProt Q9Y2U5).
T1 sequence (Q9Y2U5 whole entry): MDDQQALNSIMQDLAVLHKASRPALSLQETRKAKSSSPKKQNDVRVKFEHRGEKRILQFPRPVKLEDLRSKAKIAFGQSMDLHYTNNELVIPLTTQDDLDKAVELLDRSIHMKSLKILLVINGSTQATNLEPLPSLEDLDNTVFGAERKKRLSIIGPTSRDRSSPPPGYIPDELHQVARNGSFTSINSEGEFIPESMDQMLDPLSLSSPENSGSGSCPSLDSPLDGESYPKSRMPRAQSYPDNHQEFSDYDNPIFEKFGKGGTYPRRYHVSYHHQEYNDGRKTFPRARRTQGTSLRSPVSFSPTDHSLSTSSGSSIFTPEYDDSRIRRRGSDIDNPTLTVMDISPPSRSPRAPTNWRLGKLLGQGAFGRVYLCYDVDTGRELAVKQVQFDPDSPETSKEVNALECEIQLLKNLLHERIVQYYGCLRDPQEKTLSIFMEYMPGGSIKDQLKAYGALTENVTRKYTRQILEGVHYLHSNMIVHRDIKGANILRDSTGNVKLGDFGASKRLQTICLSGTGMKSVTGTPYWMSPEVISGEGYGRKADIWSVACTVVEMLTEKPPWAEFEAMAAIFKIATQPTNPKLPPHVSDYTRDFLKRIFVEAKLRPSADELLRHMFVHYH

Assay [2] deals with T2, Glycogen phosphorylase, brain form (Homo sapiens, UniProt P11216).
T2 sequence (P11216 whole entry): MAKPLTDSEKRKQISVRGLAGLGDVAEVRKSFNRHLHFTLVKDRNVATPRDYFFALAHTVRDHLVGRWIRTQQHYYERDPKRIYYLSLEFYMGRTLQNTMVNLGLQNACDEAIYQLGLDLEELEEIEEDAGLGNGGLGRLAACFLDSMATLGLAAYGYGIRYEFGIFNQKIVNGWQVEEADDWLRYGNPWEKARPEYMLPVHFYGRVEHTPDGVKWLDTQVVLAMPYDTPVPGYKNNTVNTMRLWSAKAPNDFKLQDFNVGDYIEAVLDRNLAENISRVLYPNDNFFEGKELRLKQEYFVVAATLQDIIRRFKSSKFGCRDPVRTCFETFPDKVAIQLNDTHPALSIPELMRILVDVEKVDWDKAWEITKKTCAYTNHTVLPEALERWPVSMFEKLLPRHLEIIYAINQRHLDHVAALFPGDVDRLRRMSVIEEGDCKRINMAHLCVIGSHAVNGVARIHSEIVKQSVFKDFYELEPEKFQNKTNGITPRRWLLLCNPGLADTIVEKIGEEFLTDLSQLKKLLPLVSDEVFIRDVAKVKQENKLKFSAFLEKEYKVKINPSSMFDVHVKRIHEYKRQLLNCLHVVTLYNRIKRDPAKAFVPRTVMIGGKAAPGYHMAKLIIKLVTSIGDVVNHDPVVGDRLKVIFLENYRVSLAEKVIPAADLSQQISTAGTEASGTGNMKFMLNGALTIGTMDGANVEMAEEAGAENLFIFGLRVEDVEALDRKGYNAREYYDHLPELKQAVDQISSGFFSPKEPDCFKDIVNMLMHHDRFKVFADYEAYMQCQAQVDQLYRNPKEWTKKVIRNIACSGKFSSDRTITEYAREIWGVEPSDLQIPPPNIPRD

Another assay deals with DNA topoisomerase 2-beta (Homo sapiens, UniProt Q02880).
DNA topoisomerase 2-beta, sequence (Q02880 whole entry): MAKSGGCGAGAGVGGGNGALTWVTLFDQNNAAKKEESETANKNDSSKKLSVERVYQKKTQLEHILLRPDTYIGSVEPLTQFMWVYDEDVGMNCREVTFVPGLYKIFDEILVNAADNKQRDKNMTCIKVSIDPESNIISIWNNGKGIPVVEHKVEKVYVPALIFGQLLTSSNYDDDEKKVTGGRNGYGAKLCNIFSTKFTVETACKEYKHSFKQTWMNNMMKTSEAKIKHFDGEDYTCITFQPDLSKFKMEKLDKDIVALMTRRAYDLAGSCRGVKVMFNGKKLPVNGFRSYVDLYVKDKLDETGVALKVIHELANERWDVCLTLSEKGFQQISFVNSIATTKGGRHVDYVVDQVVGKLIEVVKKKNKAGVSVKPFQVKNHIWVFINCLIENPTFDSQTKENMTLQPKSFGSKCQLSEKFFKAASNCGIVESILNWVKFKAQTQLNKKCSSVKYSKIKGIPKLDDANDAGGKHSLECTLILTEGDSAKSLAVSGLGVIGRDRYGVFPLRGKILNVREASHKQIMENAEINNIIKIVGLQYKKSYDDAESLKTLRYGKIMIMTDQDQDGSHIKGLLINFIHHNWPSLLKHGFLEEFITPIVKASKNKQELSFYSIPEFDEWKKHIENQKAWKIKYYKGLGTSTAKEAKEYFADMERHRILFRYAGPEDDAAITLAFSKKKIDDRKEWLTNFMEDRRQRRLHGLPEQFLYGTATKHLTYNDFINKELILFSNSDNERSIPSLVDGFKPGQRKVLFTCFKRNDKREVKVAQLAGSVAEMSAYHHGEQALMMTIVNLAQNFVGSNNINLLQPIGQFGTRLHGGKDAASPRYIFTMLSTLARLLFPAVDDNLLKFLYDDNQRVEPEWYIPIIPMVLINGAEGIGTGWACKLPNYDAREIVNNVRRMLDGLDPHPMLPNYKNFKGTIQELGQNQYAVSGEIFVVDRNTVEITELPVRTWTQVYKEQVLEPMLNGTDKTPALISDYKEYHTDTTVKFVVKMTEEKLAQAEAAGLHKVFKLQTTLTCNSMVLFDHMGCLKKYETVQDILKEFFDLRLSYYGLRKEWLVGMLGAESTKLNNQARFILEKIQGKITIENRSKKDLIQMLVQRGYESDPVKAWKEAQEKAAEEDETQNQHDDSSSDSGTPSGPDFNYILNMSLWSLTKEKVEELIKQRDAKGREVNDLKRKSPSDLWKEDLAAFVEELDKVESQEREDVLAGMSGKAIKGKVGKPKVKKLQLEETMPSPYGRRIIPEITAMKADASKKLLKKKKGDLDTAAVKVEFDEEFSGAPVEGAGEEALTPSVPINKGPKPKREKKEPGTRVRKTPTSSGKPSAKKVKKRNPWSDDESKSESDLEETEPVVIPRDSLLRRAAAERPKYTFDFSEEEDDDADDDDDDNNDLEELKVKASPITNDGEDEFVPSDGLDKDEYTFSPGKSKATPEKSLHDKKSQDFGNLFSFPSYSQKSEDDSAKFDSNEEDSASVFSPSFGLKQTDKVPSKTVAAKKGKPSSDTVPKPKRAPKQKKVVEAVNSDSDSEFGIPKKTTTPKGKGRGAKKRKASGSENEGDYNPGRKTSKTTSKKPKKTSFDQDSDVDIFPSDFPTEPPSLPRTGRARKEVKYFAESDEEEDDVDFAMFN
In assay [3] the target is Chromodomain-helicase-DNA-binding protein 4 (Homo sapiens, UniProt Q14839).
Assay [4] deals with Casein kinase I isoform gamma-1 (Homo sapiens, UniProt Q9HCP0).
Casein kinase I isoform gamma-1, sequence (Q9HCP0 whole entry, canonical isoform): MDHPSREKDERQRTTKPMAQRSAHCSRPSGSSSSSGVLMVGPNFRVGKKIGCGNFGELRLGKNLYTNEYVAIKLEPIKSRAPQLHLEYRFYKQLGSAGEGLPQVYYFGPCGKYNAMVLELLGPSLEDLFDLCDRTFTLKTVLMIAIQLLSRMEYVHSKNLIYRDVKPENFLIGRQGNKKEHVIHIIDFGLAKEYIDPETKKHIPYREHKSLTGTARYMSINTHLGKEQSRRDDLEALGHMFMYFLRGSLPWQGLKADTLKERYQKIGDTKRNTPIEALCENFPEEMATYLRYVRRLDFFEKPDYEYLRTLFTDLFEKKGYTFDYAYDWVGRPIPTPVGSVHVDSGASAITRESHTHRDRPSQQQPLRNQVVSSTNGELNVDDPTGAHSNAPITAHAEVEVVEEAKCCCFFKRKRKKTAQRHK
Assay [5] addresses Mitogen-activated protein kinase kinase kinase kinase 1 (Homo sapiens, UniProt Q92918).
Assay [6] has as its target ATP-dependent RNA helicase DDX3X (Homo sapiens, UniProt O00571).
In assay [7] the target is Bone morphogenetic protein receptor type-1B (Homo sapiens, UniProt O00238).
Bone morphogenetic protein receptor type-1B, sequence (O00238 whole entry): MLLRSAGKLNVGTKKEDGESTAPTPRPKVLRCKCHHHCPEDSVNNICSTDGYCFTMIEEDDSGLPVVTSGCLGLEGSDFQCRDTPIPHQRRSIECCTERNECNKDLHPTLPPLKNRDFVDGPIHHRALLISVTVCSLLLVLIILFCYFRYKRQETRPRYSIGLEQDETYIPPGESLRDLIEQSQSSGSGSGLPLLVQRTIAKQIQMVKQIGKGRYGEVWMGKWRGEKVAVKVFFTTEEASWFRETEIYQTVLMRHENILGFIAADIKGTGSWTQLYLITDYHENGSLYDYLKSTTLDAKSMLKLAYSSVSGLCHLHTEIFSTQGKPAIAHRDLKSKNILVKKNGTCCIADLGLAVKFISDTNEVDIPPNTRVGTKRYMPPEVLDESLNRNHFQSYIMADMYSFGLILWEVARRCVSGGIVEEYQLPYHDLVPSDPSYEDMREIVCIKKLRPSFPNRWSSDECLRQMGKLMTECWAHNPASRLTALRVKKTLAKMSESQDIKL
The target of assay [8] is Tyrosine-protein kinase ABL2 (Homo sapiens, UniProt P42684).
Tyrosine-protein kinase ABL2, sequence (P42684 whole entry): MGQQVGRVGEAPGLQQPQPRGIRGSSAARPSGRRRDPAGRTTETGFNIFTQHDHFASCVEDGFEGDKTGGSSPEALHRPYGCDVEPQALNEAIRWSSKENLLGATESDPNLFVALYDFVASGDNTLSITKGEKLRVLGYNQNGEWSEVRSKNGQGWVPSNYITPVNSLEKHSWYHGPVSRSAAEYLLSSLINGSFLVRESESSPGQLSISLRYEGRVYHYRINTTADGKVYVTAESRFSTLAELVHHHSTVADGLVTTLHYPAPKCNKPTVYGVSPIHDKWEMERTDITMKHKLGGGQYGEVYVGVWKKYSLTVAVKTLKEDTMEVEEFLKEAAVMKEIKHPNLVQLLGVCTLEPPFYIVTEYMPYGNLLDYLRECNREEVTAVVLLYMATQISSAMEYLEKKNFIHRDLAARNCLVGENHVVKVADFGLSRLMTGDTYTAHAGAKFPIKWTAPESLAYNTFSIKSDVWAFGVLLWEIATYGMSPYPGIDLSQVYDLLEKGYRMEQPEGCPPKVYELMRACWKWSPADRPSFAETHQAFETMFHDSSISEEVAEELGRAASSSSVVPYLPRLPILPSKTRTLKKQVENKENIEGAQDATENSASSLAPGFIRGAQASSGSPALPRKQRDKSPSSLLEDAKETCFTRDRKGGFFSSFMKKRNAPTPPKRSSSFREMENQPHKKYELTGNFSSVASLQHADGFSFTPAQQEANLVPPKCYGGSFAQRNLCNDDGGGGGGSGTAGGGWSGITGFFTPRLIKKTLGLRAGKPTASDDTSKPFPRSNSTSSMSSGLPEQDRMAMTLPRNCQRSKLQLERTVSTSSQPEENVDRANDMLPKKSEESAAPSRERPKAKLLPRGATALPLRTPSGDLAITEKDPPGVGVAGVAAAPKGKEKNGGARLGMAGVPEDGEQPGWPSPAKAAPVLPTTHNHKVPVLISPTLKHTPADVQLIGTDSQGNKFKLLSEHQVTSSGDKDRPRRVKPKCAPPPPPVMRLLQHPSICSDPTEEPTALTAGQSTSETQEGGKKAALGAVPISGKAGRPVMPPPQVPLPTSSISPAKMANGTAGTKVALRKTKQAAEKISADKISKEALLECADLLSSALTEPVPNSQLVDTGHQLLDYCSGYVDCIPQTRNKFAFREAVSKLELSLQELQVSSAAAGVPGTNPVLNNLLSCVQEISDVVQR
The target in assay [9] is Rho-associated protein kinase 2 (Homo sapiens, UniProt O75116).
Assay [10] addresses Serine/threonine-protein kinase/endoribonuclease IRE2 (Homo sapiens, UniProt Q76MJ5).
The target in assay [11] is T3, Membrane-associated tyrosine- and threonine-specific cdc2-inhibitory kinase (Homo sapiens, UniProt Q99640).
T3 sequence (Q99640 whole entry): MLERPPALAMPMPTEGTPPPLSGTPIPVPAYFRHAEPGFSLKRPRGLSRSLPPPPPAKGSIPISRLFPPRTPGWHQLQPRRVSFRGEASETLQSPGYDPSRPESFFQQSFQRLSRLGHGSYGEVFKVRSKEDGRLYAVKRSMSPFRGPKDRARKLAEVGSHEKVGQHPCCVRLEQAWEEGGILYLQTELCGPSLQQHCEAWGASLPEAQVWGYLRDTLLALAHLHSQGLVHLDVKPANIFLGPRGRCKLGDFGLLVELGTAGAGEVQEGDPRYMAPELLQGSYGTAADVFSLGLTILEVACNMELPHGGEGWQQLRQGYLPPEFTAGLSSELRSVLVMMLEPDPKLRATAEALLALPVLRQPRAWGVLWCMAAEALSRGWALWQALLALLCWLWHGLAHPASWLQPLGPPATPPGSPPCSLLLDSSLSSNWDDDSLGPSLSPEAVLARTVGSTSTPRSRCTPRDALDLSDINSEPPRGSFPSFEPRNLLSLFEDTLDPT

For assay [12], the target named is RAC-alpha serine/threonine-protein kinase (Homo sapiens, UniProt P31749).
RAC-alpha serine/threonine-protein kinase, sequence (P31749 whole entry): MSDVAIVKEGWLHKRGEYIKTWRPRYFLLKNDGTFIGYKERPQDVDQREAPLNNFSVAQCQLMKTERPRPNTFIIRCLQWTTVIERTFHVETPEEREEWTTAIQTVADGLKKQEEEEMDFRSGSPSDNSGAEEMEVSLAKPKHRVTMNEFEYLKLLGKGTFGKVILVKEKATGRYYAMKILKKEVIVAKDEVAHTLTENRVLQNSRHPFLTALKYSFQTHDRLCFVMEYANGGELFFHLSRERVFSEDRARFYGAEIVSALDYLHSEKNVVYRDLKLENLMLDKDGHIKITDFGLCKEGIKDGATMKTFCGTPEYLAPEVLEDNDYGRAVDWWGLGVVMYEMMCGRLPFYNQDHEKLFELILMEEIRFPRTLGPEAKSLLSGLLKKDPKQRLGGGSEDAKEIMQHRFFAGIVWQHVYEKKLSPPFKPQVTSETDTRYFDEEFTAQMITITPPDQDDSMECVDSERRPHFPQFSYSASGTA
Assay [13] addresses T4, EKC/KEOPS complex subunit TP53RK (Homo sapiens, UniProt Q96S44).
T4 sequence (Q96S44 whole entry): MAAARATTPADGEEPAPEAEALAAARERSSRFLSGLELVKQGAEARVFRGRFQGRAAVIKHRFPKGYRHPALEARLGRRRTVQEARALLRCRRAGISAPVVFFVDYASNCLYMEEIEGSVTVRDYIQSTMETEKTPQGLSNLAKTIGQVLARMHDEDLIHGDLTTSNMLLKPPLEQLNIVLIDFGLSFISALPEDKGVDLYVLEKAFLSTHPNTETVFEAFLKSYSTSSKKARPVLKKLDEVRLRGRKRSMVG
Also: in the data inactive means no Kd found up to 30 µM.

ATP-dependent RNA helicase DDX3X, sequence (O00571 whole entry): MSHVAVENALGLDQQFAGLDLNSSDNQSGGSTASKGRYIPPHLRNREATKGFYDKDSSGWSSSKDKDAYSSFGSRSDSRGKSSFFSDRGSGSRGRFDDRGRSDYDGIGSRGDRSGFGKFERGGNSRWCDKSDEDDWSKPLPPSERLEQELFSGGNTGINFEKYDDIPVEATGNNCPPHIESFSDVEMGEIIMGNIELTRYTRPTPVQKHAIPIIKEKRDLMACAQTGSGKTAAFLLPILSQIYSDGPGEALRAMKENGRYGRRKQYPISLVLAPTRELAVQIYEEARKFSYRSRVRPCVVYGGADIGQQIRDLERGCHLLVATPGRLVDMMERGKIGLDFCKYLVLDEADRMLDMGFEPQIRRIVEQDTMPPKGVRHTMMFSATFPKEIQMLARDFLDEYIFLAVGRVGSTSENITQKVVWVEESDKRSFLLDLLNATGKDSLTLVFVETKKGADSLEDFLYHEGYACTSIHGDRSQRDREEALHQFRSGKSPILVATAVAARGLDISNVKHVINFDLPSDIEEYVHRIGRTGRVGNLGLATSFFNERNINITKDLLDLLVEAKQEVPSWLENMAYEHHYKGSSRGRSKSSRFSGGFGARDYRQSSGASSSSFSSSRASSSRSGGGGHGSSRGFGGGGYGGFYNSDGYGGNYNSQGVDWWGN

As for `C[C@@H](Oc1cc(C(=O)Nc2ccc(C(=O)N3CCN(C)CC3)cc2)nnc1N)c1c(Cl)ccc(F)c1Cl`, the Kd (in [1]; in assay [2]; at DNA topoisomerase 2-beta; in [3]; in assay [4]; in assay [5]) was > 30 µM (inactive) throughout. For the same compound, the Kd in [6], in [7], in assay [8], in [9], in assay [10] and in [11] was > 30 µM (inactive) each time. Further, the Kd in [12] and in [13] was > 30 µM (inactive) in each case.

As for `Cc1csc(-c2nnc(Nc3ccc(Oc4ncccc4-c4ccnc(N)n4)cc3)c3ccccc23)c1` [AMG-900], the Kd (commonly the constant that tells how readily two partners part at equilibrium) was 1.97 µM (active) in [1]; > 30 µM (inactive) in assay [2]; 2.6 µM at DNA topoisomerase 2-beta; > 30 µM (inactive) in assay [3]; > 30 µM (inactive) in assay [4]; > 30 µM (inactive) in assay [5]. In addition, the Kd in assay [6], in assay [7], in [8], in [9], in [10] and in [11] was > 30 µM (inactive) each time. The Kd in [12] and in [13] was > 30 µM (inactive) throughout.

Take `O=C(Nc1c[nH]nc1-c1nc2cc(CN3CCOCC3)ccc2[nH]1)NC1CC1` [AT-9283]: the Kd in assay [1] was 0.277 µM (active); in assay [2] it was > 30 µM (inactive); on DNA topoisomerase 2-beta it was > 30 µM (inactive); in assay [3], > 30 µM (inactive); in assay [4], > 30 µM (inactive); in assay [5], 0.214 µM (active). For the same compound, the Kd in [6] was > 30 µM (inactive); in assay [7] it was 0.021 µM (active); in [8], 1.08 µM (active); in assay [9], > 30 µM (inactive); in assay [10], > 30 µM (inactive); in assay [11] it was > 30 µM (inactive). The Kd in assay [12] and in assay [13] was > 30 µM (inactive) each time.

Turning to `C=CC(=O)Nc1cc2c(Nc3ccc(F)c(Cl)c3)ncnc2cc1C#CC(C)(C)N1CCN(C)CC1` [AV-412 FREE BASE], the Kd (in [1]; in [2]; on DNA topoisomerase 2-beta; in [3]; in assay [4]; in assay [5]) was > 30 µM (inactive) throughout. Also, the Kd in assay [6], in assay [7], in assay [8], in assay [9], in assay [10] and in assay [11] was > 30 µM (inactive) in each case. Moreover, the Kd in assay [12] and in assay [13] was > 30 µM (inactive) each time.

Turning to `COc1cc([C@@H]2c3cc4c(cc3[C@H](O)[C@H]3COC(=O)[C@@H]23)OCO4)cc(OC)c1OC` [AXL-1717], the Kd (in assay [1]; in assay [2]; on DNA topoisomerase 2-beta; in [3]; in assay [4]; in assay [5]) was > 30 µM (inactive) in each case. Also, the Kd in assay [6], in [7], in [8], in assay [9], in [10] and in assay [11] was > 30 µM (inactive) throughout. Further, the Kd in assay [12] and in assay [13] was > 30 µM (inactive) throughout.

Regarding `Cc1cc(C(=O)NOCCO)c(Nc2ccc(I)cc2F)n(C)c1=O` [AZD-8330], the Kd (in [1]; in [2]; at DNA topoisomerase 2-beta; in [3]; in assay [4]; in assay [5]) was > 30 µM (inactive) each time. Besides, the Kd in assay [6], in assay [7], in assay [8], in [9], in assay [10] and in assay [11] was > 30 µM (inactive) in each case. The Kd in assay [12] and in assay [13] was > 30 µM (inactive) in each case.

As to `Cn1cnc2c(F)c(Nc3ccc(Br)cc3F)c(C(=O)NOCCO)cc21` [BINIMETINIB], the Kd (in assay [1]; in assay [2]; at DNA topoisomerase 2-beta; in assay [3]; in assay [4]; in assay [5]) was > 30 µM (inactive) each time. The Kd in assay [6], in [7], in assay [8], in assay [9], in assay [10] and in assay [11] was > 30 µM (inactive) throughout. The Kd in assay [12] and in assay [13] was > 30 µM (inactive) throughout.

Regarding `CCn1c(C(=O)N(C2CC2)C2CC2)cc2c3c(ncn3C)c(Nc3cc(C)n(C)n3)nc21` [BMS-911543], the Kd (in assay [1]; in assay [2]; at DNA topoisomerase 2-beta; in assay [3]; in assay [4]; in assay [5]) was > 30 µM (inactive) in each case. Moreover, the Kd in [6], in assay [7], in assay [8], in assay [9], in assay [10] and in assay [11] was > 30 µM (inactive) in each case. Besides, the Kd in assay [12] and in assay [13] was > 30 µM (inactive) each time.
